Reference: publication PMC8536627, “Hydrolytic stability of anticancer drugs and one metabolite in the aquatic environment” (Environmental Science and Pollution Research International, 2021)
Entries after “also recorded” stand apart in the source; their conditions may differ. Read-outs that look alike come from different tables or passages of the source.

Key:
physchem [1] = details: 5 days; for Degradation level in the preliminary test: dark
Method: The incubation was performed in the dark, in order to avoid the influence of the photolysis on degradation of the analytes. The water used for the preparation of buffers was autoclaved, all glassware was clean, flushed with methanol, and dried in high temperature. Samples were closed in glass tubes with a sealed cap. The air from above the solution was removed by a nitrogen stream just before capping. In the preliminary test, solutions of single analytes were prepared in each tested pH: 4, 7, and 9, which is required by the OECD guidelines. There was also a blank sample prepared for each pH. Samples in the preliminary test were prepared in two parallel replicates. Moreover, the complete preliminary test was repeated twice. The preliminary test was performed at 50 °C for 5 days. […] In the case of the extended tests, 7 measuring points were provided during the time of the test. Each measuring point was performed in two parallel replicates. […] The test was conducted for 30 days or to 90 % elimination of a compound. Obtained results were used to determine the hydrolysis rate constant (k) using equation: 1 lnCt/C0=kt
The HPLC-UV/Vis technique was applied to determine the level of hydrolytic degradation of the analytes. In the preliminary test, the control and blank samples were analyzed at the beginning and the end of the test. […] In the extended test, the samples collected in the time intervals were analyzed, and peak areas were compared to those obtained at the beginning of the test. This was used to determine the kinetic of this hydrolysis process by using the Equation 1. In general, each analyte was analyzed by a simple HPLC method with UV/Vis detection. Gemini C18 (Phenomenex, USA), 5 μm, 110 Å, 150 mm × 4.6 mm chromatographic column was applied for each method and three different mobile phases were used (water or 0.1 % HCOOH) mixed with the acetonitrile. The conditions applied during the LC-MS analysis with an ion trap detector for the qualitative analysis of the samples collected after the extended tests at 20 and 70 °C are presented in the Table S2.

physchem [2] = type: physicochemical
Method: Moreover, the complete preliminary test was repeated twice. […] Each measuring point was performed in two parallel replicates.
where t, time; ct, c0, concentration of the analyte at a time (0 means the beginning of the test); k, rate constant.
Based on this, the t1/2 was determined by using the equation: 2 t1/2=ln2/k
where t1/2, half-life of the analyte; k, rate constant.
The degradation was monitored for 30 days or until 90 % of a compound was degraded. Based on the obtained results (Fig. 4) the constant rates (k) and half-lives (t1/2) have been calculated (Table 1).
After determining the hydrolysis rate constants it was possible to calculate activation energy (Ea) of this process at each pH, either from plotting ln k from T^−1 (Figure 5) when there were three k values obtained for each compound and pH (CP at pH 4, 7, and 9 as well as IF at pH 4) or from the following equation (for IF at pH 7 and 9, where only two k values were obtained) (Table 1): 4 E=Rlnk2−lnk1/1/T1¯−1/T2
where R, gas constant (8.314 J/mol × K); k1, k2, rate constants for different temperatures; T, absolute temperature (K).

physchem [3] = type: physicochemical; details: for half-life: buffer, read-out: t½, extrapolated half-life (converted)
Method: By obtaining at least two rate constants for two different temperatures, it is possible to calculate the rate constants and, in consequence, half-lives at other temperatures, according to the Arrhenius equation: 3 k=A×e^−E/R×Torlnk=−E/R×T+lnA
Therefore, these equations were applied to extrapolate the obtained results and calculate the rate constants and half-lives of unstable anticancer drugs in more environmentally relevant temperatures (4, 10, or 15 °C), which are typical to natural waters.
Additionally, these observations confirm that CP is much more vulnerable for hydrolysis than IF, which is interesting how two isomers (like CP and IF) may differently undergo hydrolysis process. […] If the conclusions were drawn only based on the results from the preliminary experiments (incubation at 50 °C for 5 days), it would be assumed that both compounds, especially CP, are very unstable. […] Moreover, using Equation 3, it was possible to extrapolate the results to determine the rate constants and half-lives at the temperatures 4, 10, and 15 °C, which are ordinary for environmental waters (Table 2).

[4] = room temperature, ref Franquet-Griell et al. [2017], cited from earlier work
[5] = dark conditions, 20 °C, ref Buerge et al. ([2006]); cited from earlier work
[6] = 20 °C, ref Gilard et al. ([1994]), cited from earlier work
[7] = pH 7 and 8.1, 5 days, calculated; ref Booker et al. ([2014]); cited from earlier work
[8] = HPLC water with 4 % DMSO, ref Negreira et al. ([2013a]), cited from earlier work

O=P1(N(CCCl)CCCl)NCCCO1 (stereo not shown) [CP, cyclophosphamide]
Hydrolytic stability in the preliminary test (physchem [1]; pH 4, 7 and 9, 50 °C): unstable; also recorded: susceptible to hydrolysis | Degradation level in the preliminary test (physchem [1]; pH 4, 50 °C): completely eliminated | Degradation level in the preliminary test (physchem [1]; pH 7, 50 °C): 91.6% | Degradation level in the preliminary test (physchem [1]; pH 9, 50 °C): completely eliminated | Degradation of initial amount in 30 days (physchem [2]; 20 °C, 30 days, pH not specified (pH 4, 7, 9 tested)): around 20% | half-life (physchem [2]; 20 °C, all pH, read-out: Half-life (converted)): ~80 days | k, hydrolysis rate constant (physchem [2]; 20 °C, pH 4): 0.00035 h⁻¹ | k, hydrolysis rate constant (physchem [2]; 20 °C, pH 7): 0.00038 h⁻¹ | k, hydrolysis rate constant (physchem [2]; 20 °C, pH 9): 0.00037 h⁻¹ | k, hydrolysis rate constant (physchem [2]; 50 °C, pH 4): 0.025 h⁻¹ | k, hydrolysis rate constant (physchem [2]; 50 °C, pH 7): 0.024 h⁻¹ | k, hydrolysis rate constant (physchem [2]; 50 °C, pH 9): 0.024 h⁻¹ | half-life (physchem [2]; 50 °C, range over three pH values, read-out: t½, half-life (converted)): 1.15 to 1.23 days | k, hydrolysis rate constant (physchem [2]; 70 °C, pH 4): 0.27 h⁻¹ | k, hydrolysis rate constant (physchem [2]; 70 °C, pH 7): 0.28 h⁻¹ | k, hydrolysis rate constant (physchem [2]; 70 °C, pH 9): 0.27 h⁻¹ | half-life (physchem [2]; buffer, pH 4, 20 °C, pH 4, read-out: t½, half-life (converted)): 81.8 days | half-life (physchem [2]; buffer, pH 4, 50 °C, pH 4, read-out: t½, half-life (converted)): 1.15 days | half-life (physchem [2]; buffer, pH 4, 70 °C, pH 4, read-out: t½, half-life (converted)): 0.108 days | half-life (physchem [2]; buffer, pH 4, 70 °C, range over pH 4, 7, 9, read-out: t½, half-life (converted)): 0.104 to 0.108 days | half-life (physchem [2]; buffer, pH 7, 20 °C, pH 7, read-out: t½, half-life (converted)): 77.8 days | half-life (physchem [2]; buffer, pH 7, 50 °C, pH 7, read-out: t½, half-life (converted)): 1.23 days | half-life (physchem [2]; buffer, pH 7, 70 °C, pH 7, read-out: t½, half-life (converted)): 0.104 days | half-life (physchem [2]; buffer, pH 9, 20 °C, pH 9, read-out: t½, half-life (converted)): 78.9 days | half-life (physchem [2]; buffer, pH 9, 50 °C, pH 9, read-out: t½, half-life (converted)): 1.2 days | half-life (physchem [2]; buffer, pH 9, 70 °C, pH 9, read-out: t½, half-life (converted)): 0.104 days | Ea, activation energy of hydrolysis (physchem [2]; pH 4): 26.58 kcal/mol | Ea, activation energy of hydrolysis (physchem [2]; pH 7): 26.43 kcal/mol | Ea, activation energy of hydrolysis (physchem [2]; pH 9): 26.41 kcal/mol | Ea, activation energy of hydrolysis (physchem [2]; range over pH 4, 7, 9): 26.41 to 26.58 kcal/mol | k, extrapolated rate constant (physchem [3]; 4 °C, pH 4): 5.1e-05 h⁻¹ | k, extrapolated rate constant (physchem [3]; 4 °C, pH 7): 5.3e-05 h⁻¹ | k, extrapolated rate constant (physchem [3]; 4 °C, pH 9): 5.3e-05 h⁻¹ | k, extrapolated rate constant (physchem [3]; 10 °C, pH 4): 7.1e-05 h⁻¹ | k, extrapolated rate constant (physchem [3]; 10 °C, pH 7): 7.4e-05 h⁻¹ | k, extrapolated rate constant (physchem [3]; 10 °C, pH 9): 7.3e-05 h⁻¹ | k, extrapolated rate constant (physchem [3]; 15 °C, pH 4): 0.000161 h⁻¹ | k, extrapolated rate constant (physchem [3]; 15 °C, pH 7): 0.000166 h⁻¹ | k, extrapolated rate constant (physchem [3]; 15 °C, pH 9): 0.000166 h⁻¹ | half-life (physchem [3]; pH 4, 4 °C, pH 4): 568 days | half-life (physchem [3]; pH 4, 10 °C, pH 4): 406 days | half-life (physchem [3]; pH 4, 15 °C, pH 4): 179 days | half-life (physchem [3]; pH 7, 4 °C, pH 7): 549 days | half-life (physchem [3]; pH 7, 10 °C, pH 7): 393 days | half-life (physchem [3]; pH 7, 15 °C, pH 7): 174 days | half-life (physchem [3]; pH 9, 4 °C, pH 9): 550 days | half-life (physchem [3]; pH 9, 10 °C, pH 9): 394 days | half-life (physchem [3]; pH 9, 15 °C, pH 9): 174 days | Hydrolytic stability in milli-Q water ([4]; milli-Q water, natural pH): stable | Stability during a 48-h test in pure water ([4]; pure water, 48 h): stable | Half-life in lake water [5]: around 80 days | Initial concentration present after 7 days ([6]; pH 3.4–8.6, 7 days): over 95% | Maximum degradation after 17 days ([6]; pH 3.4–8.6, 17 days): ≤ 20% | Stability assessed with SPARC from molecular structure [7]: stable | Stability in 24 h test ([8]; 4 °C): stable | Long-term stability at 4 °C ([8]; 4 °C): stable for 1 month | Stability in 24 h test ([8]; 15 °C): still stable | Stability in 24 h test ([8]; 25 °C): remained stable
